Assay results taken from ChEMBL document CHEMBL3991601, “The target landscape of clinical kinase drugs” (Science, 2017).
The source made the active and inactive calls.

Tests used:
[1] = molecular target: Glycogen synthase kinase-3 alpha (Homo sapiens, UniProt P49840)
[2] = molecular target: Cyclin-dependent kinase 4 (Homo sapiens, UniProt P11802)
[3] = molecular target: Platelet-derived growth factor receptor beta (Homo sapiens, UniProt P09619)
[4] = molecular target: GTP-binding protein 4 (Homo sapiens, UniProt Q9BZE4)
[5] = molecular target: Myosin light chain kinase, smooth muscle (Homo sapiens, UniProt Q15746)
[6] = molecular target: T1, Ephrin type-B receptor 4 (Homo sapiens, UniProt P54760)
T1 sequence (P54760 whole entry): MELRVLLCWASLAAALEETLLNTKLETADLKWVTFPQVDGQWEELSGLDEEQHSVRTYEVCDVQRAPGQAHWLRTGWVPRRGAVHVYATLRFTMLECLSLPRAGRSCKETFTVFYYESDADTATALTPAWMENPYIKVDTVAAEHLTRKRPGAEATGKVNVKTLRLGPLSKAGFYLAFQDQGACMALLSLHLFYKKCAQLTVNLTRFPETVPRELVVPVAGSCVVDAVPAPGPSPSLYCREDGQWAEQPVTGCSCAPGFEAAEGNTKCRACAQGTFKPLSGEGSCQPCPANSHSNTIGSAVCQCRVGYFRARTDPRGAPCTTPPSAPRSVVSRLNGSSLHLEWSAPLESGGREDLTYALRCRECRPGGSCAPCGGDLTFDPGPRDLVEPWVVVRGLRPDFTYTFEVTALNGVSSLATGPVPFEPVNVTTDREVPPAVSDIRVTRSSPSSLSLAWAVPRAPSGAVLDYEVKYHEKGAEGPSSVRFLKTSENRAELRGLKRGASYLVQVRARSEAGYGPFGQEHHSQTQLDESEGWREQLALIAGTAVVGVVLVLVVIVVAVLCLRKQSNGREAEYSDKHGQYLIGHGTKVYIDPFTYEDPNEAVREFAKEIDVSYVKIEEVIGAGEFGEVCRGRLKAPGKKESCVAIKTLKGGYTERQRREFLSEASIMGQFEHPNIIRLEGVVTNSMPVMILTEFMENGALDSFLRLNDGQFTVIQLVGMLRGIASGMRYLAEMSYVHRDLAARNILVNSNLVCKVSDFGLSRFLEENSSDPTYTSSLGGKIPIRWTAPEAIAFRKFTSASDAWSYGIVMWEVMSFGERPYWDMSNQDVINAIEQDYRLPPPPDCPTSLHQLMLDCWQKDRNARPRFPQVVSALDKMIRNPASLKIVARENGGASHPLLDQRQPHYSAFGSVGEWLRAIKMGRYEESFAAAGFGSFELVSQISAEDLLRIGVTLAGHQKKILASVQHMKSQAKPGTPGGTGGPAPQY

[7] = molecular target: T2, Mitogen-activated protein kinase kinase kinase 6 (Homo sapiens, UniProt O95382)
T2 sequence (O95382 whole entry): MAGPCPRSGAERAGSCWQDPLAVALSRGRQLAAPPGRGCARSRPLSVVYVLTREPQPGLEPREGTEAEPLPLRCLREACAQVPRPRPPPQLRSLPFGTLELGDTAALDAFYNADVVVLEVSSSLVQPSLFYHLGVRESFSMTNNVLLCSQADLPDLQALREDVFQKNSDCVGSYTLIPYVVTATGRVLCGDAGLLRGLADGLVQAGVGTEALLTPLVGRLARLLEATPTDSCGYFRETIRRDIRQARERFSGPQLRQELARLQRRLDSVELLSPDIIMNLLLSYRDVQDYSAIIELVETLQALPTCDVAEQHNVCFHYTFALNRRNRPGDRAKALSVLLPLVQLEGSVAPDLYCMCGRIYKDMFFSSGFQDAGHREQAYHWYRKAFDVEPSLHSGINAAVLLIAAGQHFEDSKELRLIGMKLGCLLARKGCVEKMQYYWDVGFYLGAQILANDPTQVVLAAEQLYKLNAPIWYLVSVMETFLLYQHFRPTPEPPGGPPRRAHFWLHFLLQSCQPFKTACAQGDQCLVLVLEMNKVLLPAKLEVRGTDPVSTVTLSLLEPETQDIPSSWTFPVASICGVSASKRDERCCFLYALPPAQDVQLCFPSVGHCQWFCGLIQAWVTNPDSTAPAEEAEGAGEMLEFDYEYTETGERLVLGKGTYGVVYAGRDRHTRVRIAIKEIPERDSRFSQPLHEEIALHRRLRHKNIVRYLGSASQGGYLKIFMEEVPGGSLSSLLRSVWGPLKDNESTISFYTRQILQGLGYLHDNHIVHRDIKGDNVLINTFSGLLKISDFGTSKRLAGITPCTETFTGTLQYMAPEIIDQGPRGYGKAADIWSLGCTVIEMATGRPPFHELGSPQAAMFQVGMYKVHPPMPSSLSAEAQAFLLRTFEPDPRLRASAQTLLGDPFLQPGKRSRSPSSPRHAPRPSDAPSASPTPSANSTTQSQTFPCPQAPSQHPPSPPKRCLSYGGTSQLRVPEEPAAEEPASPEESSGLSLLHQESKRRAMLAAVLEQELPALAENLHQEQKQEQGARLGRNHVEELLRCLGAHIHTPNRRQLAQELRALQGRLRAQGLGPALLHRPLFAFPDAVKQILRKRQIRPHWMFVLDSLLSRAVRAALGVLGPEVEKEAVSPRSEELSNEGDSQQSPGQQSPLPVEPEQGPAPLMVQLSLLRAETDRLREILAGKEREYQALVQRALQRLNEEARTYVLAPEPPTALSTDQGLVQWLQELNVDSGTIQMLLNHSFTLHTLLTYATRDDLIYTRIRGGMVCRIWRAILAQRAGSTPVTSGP

[8] = molecular target: Protein-tyrosine kinase 2-beta (Homo sapiens, UniProt Q14289)
[9] = molecular target: Elongation factor Tu, mitochondrial (Homo sapiens, UniProt P49411)
[10] = molecular target: TGF-beta receptor type-2 (Homo sapiens, UniProt P37173)
[11] = molecular target: Bone morphogenetic protein receptor type-1A (Homo sapiens, UniProt P36894)
[12] = molecular target: Insulin-like growth factor 1 receptor (Homo sapiens, UniProt P08069)
[13] = molecular target: Dual specificity tyrosine-phosphorylation-regulated kinase 1A (Homo sapiens, UniProt Q13627)
Further: in the data inactive means no Kd found up to 30 µM.

Sequence of Platelet-derived growth factor receptor beta (P09619 whole entry): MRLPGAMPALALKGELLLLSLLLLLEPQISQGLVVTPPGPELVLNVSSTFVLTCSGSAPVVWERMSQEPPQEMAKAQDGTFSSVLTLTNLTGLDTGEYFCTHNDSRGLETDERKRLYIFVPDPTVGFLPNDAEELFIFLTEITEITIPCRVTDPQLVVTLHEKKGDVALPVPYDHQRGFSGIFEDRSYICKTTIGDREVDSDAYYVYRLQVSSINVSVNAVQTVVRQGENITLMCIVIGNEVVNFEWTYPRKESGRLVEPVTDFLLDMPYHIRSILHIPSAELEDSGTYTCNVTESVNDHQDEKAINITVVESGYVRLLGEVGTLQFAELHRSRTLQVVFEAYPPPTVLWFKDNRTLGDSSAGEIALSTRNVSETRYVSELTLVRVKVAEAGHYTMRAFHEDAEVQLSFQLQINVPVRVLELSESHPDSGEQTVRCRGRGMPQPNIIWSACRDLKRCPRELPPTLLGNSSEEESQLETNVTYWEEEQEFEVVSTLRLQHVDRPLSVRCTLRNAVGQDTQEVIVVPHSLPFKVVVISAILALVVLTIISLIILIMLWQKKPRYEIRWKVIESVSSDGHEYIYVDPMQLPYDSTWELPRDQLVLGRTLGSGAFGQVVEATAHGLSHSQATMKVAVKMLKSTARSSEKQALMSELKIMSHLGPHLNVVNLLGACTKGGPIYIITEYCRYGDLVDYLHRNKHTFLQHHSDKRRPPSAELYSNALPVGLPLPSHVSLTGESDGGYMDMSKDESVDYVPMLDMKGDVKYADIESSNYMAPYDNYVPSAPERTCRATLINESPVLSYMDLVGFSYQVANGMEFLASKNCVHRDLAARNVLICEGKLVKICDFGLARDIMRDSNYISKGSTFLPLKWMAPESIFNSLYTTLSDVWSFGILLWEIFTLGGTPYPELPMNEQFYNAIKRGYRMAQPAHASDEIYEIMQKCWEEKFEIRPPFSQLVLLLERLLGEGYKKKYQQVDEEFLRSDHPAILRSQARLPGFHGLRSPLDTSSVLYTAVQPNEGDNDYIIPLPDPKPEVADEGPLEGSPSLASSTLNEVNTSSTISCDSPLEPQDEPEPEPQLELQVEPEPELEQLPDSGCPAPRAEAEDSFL
Sequence of Myosin light chain kinase, smooth muscle (Q15746 whole entry): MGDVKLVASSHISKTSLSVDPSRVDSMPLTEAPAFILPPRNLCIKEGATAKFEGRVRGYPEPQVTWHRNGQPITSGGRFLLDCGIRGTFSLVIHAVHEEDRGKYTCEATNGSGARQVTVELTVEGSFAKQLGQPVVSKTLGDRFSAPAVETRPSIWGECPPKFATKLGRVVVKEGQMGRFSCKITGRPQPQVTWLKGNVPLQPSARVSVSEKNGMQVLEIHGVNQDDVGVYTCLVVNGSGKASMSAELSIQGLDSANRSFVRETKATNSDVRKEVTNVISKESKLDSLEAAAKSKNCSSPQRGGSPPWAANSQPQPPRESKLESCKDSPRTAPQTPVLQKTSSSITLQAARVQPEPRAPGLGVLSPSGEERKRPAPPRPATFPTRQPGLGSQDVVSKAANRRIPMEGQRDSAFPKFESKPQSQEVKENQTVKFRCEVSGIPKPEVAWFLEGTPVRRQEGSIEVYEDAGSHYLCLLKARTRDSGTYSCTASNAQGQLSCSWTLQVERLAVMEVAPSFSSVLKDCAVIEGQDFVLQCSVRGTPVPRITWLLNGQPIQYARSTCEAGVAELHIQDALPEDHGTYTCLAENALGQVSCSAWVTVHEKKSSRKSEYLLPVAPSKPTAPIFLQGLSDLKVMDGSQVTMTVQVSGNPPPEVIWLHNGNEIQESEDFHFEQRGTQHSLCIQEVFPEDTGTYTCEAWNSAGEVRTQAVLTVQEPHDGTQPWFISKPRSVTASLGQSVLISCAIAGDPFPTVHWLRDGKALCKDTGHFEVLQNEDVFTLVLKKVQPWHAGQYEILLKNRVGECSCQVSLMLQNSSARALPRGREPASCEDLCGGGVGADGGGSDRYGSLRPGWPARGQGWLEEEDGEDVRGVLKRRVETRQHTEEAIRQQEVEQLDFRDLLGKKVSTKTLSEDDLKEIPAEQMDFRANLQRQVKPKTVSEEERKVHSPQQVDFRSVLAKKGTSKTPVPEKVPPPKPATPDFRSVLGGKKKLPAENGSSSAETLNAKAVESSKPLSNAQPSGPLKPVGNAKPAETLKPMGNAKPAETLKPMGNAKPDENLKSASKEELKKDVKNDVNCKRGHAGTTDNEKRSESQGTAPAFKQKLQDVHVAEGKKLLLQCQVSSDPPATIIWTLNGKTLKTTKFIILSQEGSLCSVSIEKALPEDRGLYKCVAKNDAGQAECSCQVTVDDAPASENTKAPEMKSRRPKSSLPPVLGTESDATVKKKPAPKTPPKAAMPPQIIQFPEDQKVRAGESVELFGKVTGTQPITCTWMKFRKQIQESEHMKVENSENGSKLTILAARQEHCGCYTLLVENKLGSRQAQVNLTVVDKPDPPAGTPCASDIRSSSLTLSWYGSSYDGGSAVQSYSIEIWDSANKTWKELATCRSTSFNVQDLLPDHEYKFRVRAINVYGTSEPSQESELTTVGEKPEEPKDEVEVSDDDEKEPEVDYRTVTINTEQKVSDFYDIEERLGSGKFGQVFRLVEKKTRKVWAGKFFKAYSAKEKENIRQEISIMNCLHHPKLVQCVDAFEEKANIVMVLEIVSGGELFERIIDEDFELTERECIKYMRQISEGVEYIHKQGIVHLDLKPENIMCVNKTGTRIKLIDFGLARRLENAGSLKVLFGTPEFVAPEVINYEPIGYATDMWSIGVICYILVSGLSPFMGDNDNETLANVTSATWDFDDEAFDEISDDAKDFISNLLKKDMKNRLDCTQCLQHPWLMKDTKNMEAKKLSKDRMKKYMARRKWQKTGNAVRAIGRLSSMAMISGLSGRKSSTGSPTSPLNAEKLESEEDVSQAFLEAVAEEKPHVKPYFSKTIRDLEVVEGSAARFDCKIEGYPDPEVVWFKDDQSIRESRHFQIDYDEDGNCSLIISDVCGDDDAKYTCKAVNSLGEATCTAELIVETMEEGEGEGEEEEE
Sequence of Protein-tyrosine kinase 2-beta (Q14289 whole entry): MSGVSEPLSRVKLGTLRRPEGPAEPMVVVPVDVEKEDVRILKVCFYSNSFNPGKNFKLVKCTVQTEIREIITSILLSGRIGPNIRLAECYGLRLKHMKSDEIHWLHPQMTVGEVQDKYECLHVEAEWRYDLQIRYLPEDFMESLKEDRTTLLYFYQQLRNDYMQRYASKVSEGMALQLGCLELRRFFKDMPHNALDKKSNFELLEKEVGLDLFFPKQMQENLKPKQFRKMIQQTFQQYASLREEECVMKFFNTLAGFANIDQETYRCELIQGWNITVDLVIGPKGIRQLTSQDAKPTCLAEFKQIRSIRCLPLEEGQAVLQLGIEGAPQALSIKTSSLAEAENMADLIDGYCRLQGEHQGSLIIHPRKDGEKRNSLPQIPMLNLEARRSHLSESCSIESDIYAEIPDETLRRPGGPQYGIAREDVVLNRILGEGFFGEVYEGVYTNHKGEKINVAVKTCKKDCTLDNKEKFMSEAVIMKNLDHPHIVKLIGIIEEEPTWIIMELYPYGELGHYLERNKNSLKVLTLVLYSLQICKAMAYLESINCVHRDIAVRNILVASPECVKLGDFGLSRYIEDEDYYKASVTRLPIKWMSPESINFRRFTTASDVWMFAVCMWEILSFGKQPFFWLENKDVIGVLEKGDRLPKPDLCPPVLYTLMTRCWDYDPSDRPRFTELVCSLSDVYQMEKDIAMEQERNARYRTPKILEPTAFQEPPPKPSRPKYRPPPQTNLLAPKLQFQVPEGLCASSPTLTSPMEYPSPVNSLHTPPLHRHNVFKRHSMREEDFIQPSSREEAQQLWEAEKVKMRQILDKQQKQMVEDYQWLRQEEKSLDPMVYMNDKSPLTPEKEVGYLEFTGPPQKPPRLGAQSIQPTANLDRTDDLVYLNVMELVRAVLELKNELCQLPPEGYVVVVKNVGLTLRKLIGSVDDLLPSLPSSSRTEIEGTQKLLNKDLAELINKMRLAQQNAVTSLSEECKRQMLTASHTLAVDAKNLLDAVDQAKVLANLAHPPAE
Sequence of Cyclin-dependent kinase 4 (P11802 whole entry): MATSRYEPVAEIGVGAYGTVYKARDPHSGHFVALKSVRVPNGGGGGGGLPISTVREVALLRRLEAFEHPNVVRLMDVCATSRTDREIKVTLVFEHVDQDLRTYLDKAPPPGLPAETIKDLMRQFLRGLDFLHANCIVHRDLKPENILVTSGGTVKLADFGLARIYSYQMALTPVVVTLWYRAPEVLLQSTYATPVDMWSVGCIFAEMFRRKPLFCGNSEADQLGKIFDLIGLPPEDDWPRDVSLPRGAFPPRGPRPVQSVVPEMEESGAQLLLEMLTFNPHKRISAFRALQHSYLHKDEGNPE
Sequence of TGF-beta receptor type-2 (P37173 whole entry): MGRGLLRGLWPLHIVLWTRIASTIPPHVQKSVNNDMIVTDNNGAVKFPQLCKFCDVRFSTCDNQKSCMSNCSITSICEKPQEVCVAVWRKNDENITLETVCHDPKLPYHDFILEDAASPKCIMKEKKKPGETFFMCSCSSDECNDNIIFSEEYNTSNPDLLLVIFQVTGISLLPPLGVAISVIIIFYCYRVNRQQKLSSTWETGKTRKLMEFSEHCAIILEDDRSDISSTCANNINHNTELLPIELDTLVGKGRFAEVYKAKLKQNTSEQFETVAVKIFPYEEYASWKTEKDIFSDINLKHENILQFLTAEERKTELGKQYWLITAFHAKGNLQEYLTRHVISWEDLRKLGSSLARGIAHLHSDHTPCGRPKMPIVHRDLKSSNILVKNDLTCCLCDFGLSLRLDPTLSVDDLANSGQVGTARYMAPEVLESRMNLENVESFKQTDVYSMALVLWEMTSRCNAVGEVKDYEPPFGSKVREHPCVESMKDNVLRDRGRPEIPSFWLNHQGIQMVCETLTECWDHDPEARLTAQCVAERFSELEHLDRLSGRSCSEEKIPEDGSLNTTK

SMILES	Kd [1]	Kd [2]	Kd [3]	Kd [4]	Kd [5]	Kd [6]	Kd [7]	Kd [8]	Kd [9]	Kd [10]	Kd [11]	Kd [12]	Kd [13]
COc1cc2ncnc(Nc3ccc(O)cc3)c2cc1OC [WHI-P131]	> 30 µM (inactive)	> 30 µM (inactive)	> 30 µM (inactive)	> 30 µM (inactive)	> 30 µM (inactive)	> 30 µM (inactive)	> 30 µM (inactive)	> 30 µM (inactive)	> 30 µM (inactive)	> 30 µM (inactive)	> 30 µM (inactive)	> 30 µM (inactive)	> 30 µM (inactive)
CNC(=O)c1cc(COc2nnc(Nc3ccc(Cl)cc3)c3ccoc23)ccn1 [TELATINIB]	> 30 µM (inactive)	> 30 µM (inactive)	0.555 µM (active)	> 30 µM (inactive)	> 30 µM (inactive)	> 30 µM (inactive)	> 30 µM (inactive)	> 30 µM (inactive)	> 30 µM (inactive)	> 30 µM (inactive)	> 30 µM (inactive)	> 30 µM (inactive)	> 30 µM (inactive)
COc1cc(F)c(F)c(Nc2ccc(I)cc2F)c1NS(=O)(=O)C1(C[C@H](O)CO)CC1 [REFAMETINIB]	> 30 µM (inactive)	> 30 µM (inactive)	> 30 µM (inactive)	> 30 µM (inactive)	> 30 µM (inactive)	> 30 µM (inactive)	> 30 µM (inactive)	> 30 µM (inactive)	> 30 µM (inactive)	> 30 µM (inactive)	> 30 µM (inactive)	> 30 µM (inactive)	> 30 µM (inactive)
CC(C)CC(=O)Nc1[nH]nc2c1CN(C(=O)C1CCN(C)CC1)C2(C)C [PHA-793887]	0.029 µM (active)	> 30 µM (inactive)	> 30 µM (inactive)	> 30 µM (inactive)	> 30 µM (inactive)	> 30 µM (inactive)	> 30 µM (inactive)	> 30 µM (inactive)	> 30 µM (inactive)	> 30 µM (inactive)	> 30 µM (inactive)	> 30 µM (inactive)	> 30 µM (inactive)
O[C@H]1CC[C@H](Nc2ncc3nc(Nc4c(F)cc(F)cc4F)n([C@H]4CCOC4)c3n2)CC1 [TANZISERTIB]	> 30 µM (inactive)	> 30 µM (inactive)	> 30 µM (inactive)	> 30 µM (inactive)	2.63 µM	> 30 µM (inactive)	> 30 µM (inactive)	> 30 µM (inactive)	> 30 µM (inactive)	> 30 µM (inactive)	> 30 µM (inactive)	> 30 µM (inactive)	> 30 µM (inactive)
CNC(=O)c1ccc(Nc2ncc(C(F)(F)F)c(NCc3nccnc3N(C)S(C)(=O)=O)n2)cc1 [DEFACTINIB]	1.46 µM (active)	> 30 µM (inactive)	> 30 µM (inactive)	> 30 µM (inactive)	> 30 µM (inactive)	> 30 µM (inactive)	> 30 µM (inactive)	0.423 µM (active)	> 30 µM (inactive)	> 30 µM (inactive)	> 30 µM (inactive)	> 30 µM (inactive)	9.12 µM (active)
Cc1cc(-c2cc(OC(=O)c3ccccc3)ccc2Cl)cc2nnc(Nc3ccc(OCCN4CCCC4)cc3)nc12 [TG100-801]	> 30 µM (inactive)	> 30 µM (inactive)	0.109 µM (active)	> 30 µM (inactive)	> 30 µM (inactive)	0.711 µM (active)	> 30 µM (inactive)	> 30 µM (inactive)	> 30 µM (inactive)	0.703 µM (active)	> 30 µM (inactive)	> 30 µM (inactive)	> 30 µM (inactive)
FC(F)(F)c1ccc(CNc2ccc(Cc3c[nH]c4ncc(Cl)cc34)cn2)cn1 [PEXIDARTINIB]	> 30 µM (inactive)	> 30 µM (inactive)	> 30 µM (inactive)	> 30 µM (inactive)	> 30 µM (inactive)	> 30 µM (inactive)	> 30 µM (inactive)	> 30 µM (inactive)	> 30 µM (inactive)	> 30 µM (inactive)	> 30 µM (inactive)	> 30 µM (inactive)	> 30 µM (inactive)
O=c1[nH]c([C@@H]2CCCN2)nc2c1oc1ccc(Cl)cc12	> 30 µM (inactive)	> 30 µM (inactive)	> 30 µM (inactive)	> 30 µM (inactive)	> 30 µM (inactive)	> 30 µM (inactive)	> 30 µM (inactive)	> 30 µM (inactive)	> 30 µM (inactive)	> 30 µM (inactive)	> 30 µM (inactive)	> 30 µM (inactive)	0.04 µM
C=CC(=O)Nc1cccc(Nc2nc(Nc3ccc(N4CCN(C(C)=O)CC4)cc3OC)ncc2C(F)(F)F)c1 [ROCILETINIB]	> 30 µM (inactive)	> 30 µM (inactive)	> 30 µM (inactive)	> 30 µM (inactive)	> 30 µM (inactive)	> 30 µM (inactive)	> 30 µM (inactive)	> 30 µM (inactive)	> 30 µM (inactive)	> 30 µM (inactive)	> 30 µM (inactive)	> 30 µM (inactive)	> 30 µM (inactive)

Second part, the compound after the results:

Kd [1]	Kd [2]	Kd [3]	Kd [4]	Kd [5]	Kd [6]	Kd [7]	Kd [8]	Kd [9]	Kd [10]	Kd [11]	Kd [12]	Kd [13]	SMILES
> 30 µM (inactive)	> 30 µM (inactive)	> 30 µM (inactive)	> 30 µM (inactive)	> 30 µM (inactive)	> 30 µM (inactive)	> 30 µM (inactive)	> 30 µM (inactive)	> 30 µM (inactive)	> 30 µM (inactive)	> 30 µM (inactive)	> 30 µM (inactive)	3.29 µM (active)	COc1cccc(Nc2ncnn3ccc(CN4CC[C@@H](N)[C@H](O)C4)c23)c1 [BMS-690514]
> 30 µM (inactive)	> 30 µM (inactive)	> 30 µM (inactive)	> 30 µM (inactive)	> 30 µM (inactive)	> 30 µM (inactive)	> 30 µM (inactive)	> 30 µM (inactive)	> 30 µM (inactive)	> 30 µM (inactive)	> 30 µM (inactive)	> 30 µM (inactive)	> 30 µM (inactive)	Cn1c(=O)c(F)c(Nc2ccc(I)cc2F)c2c(=O)n(C[C@@H](O)CO)cnc21 [TAK-733]
